Results published in patent publication US20060063244A1, “Methods and composition for the production of orthogonal tRNA-aminoacyltRNA synthetase pairs” (The Scripps Research Institute, priority 2001, published 2006).
Numbering of substitutions follows the chain as printed. In names and notes the source's numbering stands.

How the values were obtained:
[1] = test system: COc1ccc(C[C@H](N)C(=O)O)cc1; test: Pyrophosphate-exchange assay of adenylate formation; format: biochemical, Methanococcus jannaschii; settings: other: mutant TyrRS, 37° C.
Method: (§1) Kinetics of adenylate formation of O-methyl-L-tyrosine and tyrosine with adenosine triphosphate (ATP) catalyzed by the mutant TyrRS were analyzed in vitro using a pyrophosphate-exchange assay at 37° C. For example, the mutant TyrRS gene with six histidines at its C-terminus was cloned into plasmid pQE-60 (Qiagen, CA) to generate plasmid pQE-mJYRS. Protein was purified by immobilized metal affinity chromatography according to manufacture's protocol (Qiagen, CA). Pyrophosphate (PPi) exchange was carried out at 37° C. in a reaction mixture containing 100 mM TrisHCl (pH7.5), 10 mM KF, 5 mM MgCl2, 2 mM ATP, 2 mM NaPPi, 0.1 mg/mL bovine serum albumin, approximately 0.01 μCi/μL [^32P]NaPPi, and various concentrations of tyrosine or O-methyl-L-tyrosine. Reactions were initiated with the addition of the purified mutant TyrRS, and aliquots were periodically taken and quenched with 0.2 M NaPPi, 7% perchloric acid, and 2% activated charcoal. The charcoal was filtered and washed with 10 mM NaPPi (pH2), then measured by scintillation counting to determine the ^32P levels in charcoal-adsorbed ATP. Values of kcat and Km were calculated by direct fitting of the Michaelis-Menten equation using nonlinear regression analysis.

[2] = test system: N[C@@H](Cc1ccc(O)cc1)C(=O)O; test: as above; format: biochemical, Methanococcus jannaschii; settings: other: mutant TyrRS, 37° C.
Method: as §1

E. coli cells = test: LC/MS analysis of toluenized E. coli cells grown with unnatural amino acid; format: cell-based; settings: E. coli grown in the presence of the amino acid
Text: Generality of aminoacyl tRNA synthetase evolution. […] The enzyme can be evolved to accommodate a variety of functionalities in place of the phenol side chain of tyrosine and can do so with high selectivity. […] It was not possible to identify an enzyme variant that could accept the pCF unnatural amino acid. A second attempt to evolve a synthetase to accept the pCF amino acid was also unsuccessful.

[3] = test system: valine position in the native protein; settings: edit-defective ValRS strain grown with Abu; cited from earlier work
Escherichia coli = test: Effect on growth of Escherichia coli host cells; format: cell-based; settings: 1 mM added to medium
mutant TyrRS = molecular target: T1, mutant TyrRS (Methanocaldococcus jannaschii, UniProt Q57834, D158A/E107T/L162P/N268S/Y32Q); test: Pyrophosphate-exchange assay of adenylate formation; format: biochemical, Methanococcus jannaschii
T1 construct: His6 (C); made in house
Method: as §1

amber nonsense codon = test: Fidelity of translation by analysis of dihydrofolate reductase containing the unnatural amino acid; format: cell-based, Escherichia coli; settings: incorporation in response to amber nonsense codon
Text: A unique transfer RNA (tRNA)-aminoacyl tRNA synthetase pair has been generated that expands the number of genetically encoded amino acids in Escherichia coli. When introduced into Escherichia coli, this pair leads to the in vivo incorporation of the synthetic amino acid O-methyl-L-tyrosine, added exogenously to the growth medium, into protein in response to an amber nonsense codon. The fidelity of translation is greater than 99%, as determined by analysis of dihydrofolate reductase containing the unnatural amino acid. This approach provides a general method for increasing the genetic repertoire of living cells to include a variety of amino acids with novel structural, chemical and physical properties not found in the common twenty amino acids.

[4] = test system: yeast PheRS / Escherichia coli PheRS; settings: cited from earlier work
[5] = test system: Escherichia coli total tRNA / purified tRNA from Halobacterium; test: In vitro aminoacylation by archaeal leucyl-tRNA synthetases; format: biochemical
Method: The next step involved determination of a synthetase that charges the suppressor tRNA without interacting with host tRNA. The two chosen systems, Methanobacterium thermoautotrophicum and Methanococcus jannaschii were expressed, and aminoacylation was performed in vitro on purified tRNA from Halobacterium as a positive control, and for Escherichia coli total tRNA.

[6] = In vitro aminoacylation with leucine and methionine by editing-domain mutants of Methanobacterium thermoautotrophicum RS; format: biochemical
Text: Next, point mutations were made in the editing domain. The catalytic core of the editing domain is well conserved across species and even for different amino acids, at least for the family of branched chain amino acids. Several of these conserved sites have previously been mutated, for example a T→P mutation, and found to knock out editing function. Mutants of Methanobacterium thermoautotrophicum RS were constructed that were similar to several known mutants, and also a 20 member NNK library derived from T214 was made. Proteins were expressed and examined in vitro for aminoacylation with leucine and methionine. None of the previously identified mutations were transferable to our system, but a desirable mutation was identified from the T214 library.

T1 sequence (Q57834 whole entry Y32Q/E107T/D158A/L162P/N268S): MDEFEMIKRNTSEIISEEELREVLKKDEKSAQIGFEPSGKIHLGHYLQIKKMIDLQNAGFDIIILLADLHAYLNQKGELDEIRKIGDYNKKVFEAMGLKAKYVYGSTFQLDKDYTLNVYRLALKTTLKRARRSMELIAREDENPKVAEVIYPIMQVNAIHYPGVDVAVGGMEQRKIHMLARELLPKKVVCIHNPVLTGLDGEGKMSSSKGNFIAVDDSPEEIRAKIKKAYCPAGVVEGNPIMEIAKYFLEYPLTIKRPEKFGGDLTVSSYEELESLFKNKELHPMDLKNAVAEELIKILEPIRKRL

## mutant TyrRS (Methanocaldococcus jannaschii DSM 2661; D158A/E107T/L162P/N268S/Y32Q)
[1]
  Km: 443 ± 93 µM
  kcat: 14±1×10^−3 s^−1
[2]
  Km: 5.833 ± 0.902 mM
  kcat: 1.8±0.2×10^−3 s^−1

## N[C@@H](Cc1ccc(C(=O)O)cc1)C(=O)O [pCF, p-Carboxyl-Phenylalanine]
E. coli cells
  detection in cells by LC/MS: could not be detected

## CCC(N)C(=O)O (centres unmarked) [Abu, aminobutyrate]
[3]
  valines replaced at each valine position: about 24%

## COc1ccc(C[C@H](N)C(=O)O)cc1 [O-methyl-L-tyrosine]
Escherichia coli
  effect on growth rate of Escherichia coli: does not significantly affect the growth rate
Mutant TyrRS
  kcat/Km relative to tyrosine: about 100 fold
Amber nonsense codon
  fidelity of translation: greater than 99%

## N[C@@H](Cc1ccc(F)cc1)C(=O)O [p-F-Phe, p-fluorophenylalanine]
[4]
  share found at the Phe codon positions: 7%
[4]; excess p-F-Phe in growth media
  share at the mutagenesis site: 64-75%

## N[C@@H](Cc1ccc(O)cc1)C(=O)O [tyrosine]
Mutant TyrRS
  Km relative to O-methyl-L-tyrosine: approximately 13 fold
  kcat relative to O-methyl-L-tyrosine: eight fold less

B1: Methanobacterium thermoautotrophicum synthetase: leucyl-tRNA synthetase from Methanobacterium thermoautotrophicum (protein, UniProt O27552 1-937, looked up)
Leucine--tRNA ligase: MDIERKWRDRWRDAGIFQADPDDREKIFLTVAYPYPSGAMHIGHGRTYTVPDVYARFKRMQGYNVLFPMAWHVTGAPVIGIARRIQRKDPWTLKIYREVHRVPEDELERFSDPEYIVEYFSREYRSVMEDMGYSIDWRREFKTTDPTYSRFIQWQIRKLRDLGLVRKGAHPVKYCPECENPVGDHDLLEGEGVAINQLTLLKFKLGDSYLVAATFRPETIYGATNLWLNPDEDYVRVETGGEEWIISRAAVDNLSHQKLDLKVSGDVNPGDLIGMCVENPVTGQEHPILPASFVDPEYATGVVFSVPAHAPADFIALEDLRTDHELLERYGLEDVVADIEPVNVIAVDGYGEFPAAEVIEKFGVRNQEDPRLEDATGELYKIEHARGVMSSHIPVYGGMKVSEAREVIADELKDQGLADEMYEFAERPVICRCGGRCVVRVMEDQWFMKYSDDAWKDLAHRCLDGMKIIPEEVRANFEYYIDWLNDWACSRRIGLGTRLPWDERWIIEPLTDSTIYMAYYTIAHRLREMDAGEMDDEFFDAIFLDDSGTFEDLREEFRYWYPLDWRLSAKDLIGNHLTFHIFHHSAIFPESGWPRGAVVFGMGLLEGNKMSSSKGNVILLRDAIEKHGADVVRLFLMSSAEPWQDFDWRESEVIGTRRRIEWFREFGERVSGILDGRPVLSEVTPAEPESFIGRWMMGQLNQRIREATRALESFQTRKAVQEALYLLKKDVDHYLKRVEGRVDDEVKSVLANVLHAWIRLMAPFIPYTAEEMWERYGGEGFVAEAPWPDFSDDAESRDVQVAEEMVQNTVRDIQEIMKILGSTPERVHIYTSPKWKWDVLRVAAEVGKLDMGSIMGRVSAEGIHDNMKEVAEFVRRIIRDLGKSEVTVIDEYSVLMDASDYIESEVGARVVIHSKPDYDPENKAVNAVPLKPAIYLE
[5]
  charging of Escherichia coli total tRNA versus Halobacterium tRNA: specific towards the Halobacterium tRNA

B2: T214Q: editing-domain point mutant of Methanobacterium thermoautotrophicum leucyl-tRNA synthetase (protein, UniProt O27552 1-937, looked up, variant T214Q)
Leucine--tRNA ligase: B1 Leucine--tRNA ligase with T214Q
[6]
  charging with leucine: capable of charging with leucine
  charging with methionine: capable of charging methionine

B3: Methanococcus jannaschii synthetase: leucyl tRNA synthetase cloned from Methanococcus jannaschii (protein, UniProt Q58050 1-942, looked up)
Leucine--tRNA ligase: MMVMIDFKEIEKKWQKRWEEAKIFEANPDDREKFFITAAFPYLNGVLHAGHLRTFTIPEVVARFQRMKNKNVLWTFGYHVTGTPILGLAELIKNRDEKTIWAYTELHGIPKEELLELTTPEKIVEYFSKKAEEAFKRMGFSLDWRRNFKTDDKVFNKFIEWQFHKLKEKGLIVKGSHPVRYCPRCDNPVEDHDILVGENATLVEYILIKFTTEDGCIMPMATLRPETVFGVTNVWVNPEATYVKAKVYLEKETENGIELIENGIWIMAKECAEKLKHQDRKIEIIEEFKGEQLINKKVKNPVTGKEVPILPAKFVKTNIGTGCVMSVPAHAPYDYIALRDLGLVDEIGLIPLINVPGYGKYPAKEIVEKMGIKSQEEEDKLEEATKKIYKDEFHKGVLNENCLDYEGIPVREIKDKLTKDLIDKGLAEIMYEFSEEKVICRCGTPCIVKMVKGQWFIKYSDEKWKELAHKCIDKMRFIPENLRQVFHEKIDWMKDKACVRRRGLGTKFPFEEGWVIESLSDSTIYPAYYTVAKYINQHNIKPEQLTLELFDYVFLGKGDVDKIAKETGIPKDIIEGMRKEFIYYYPVDWRCSAKDLIPNHLTFYIFNHVAIFPEEFWPRGIVVNGYVTIEGKKLSKSKGPVLPVLEVAEKFGADVGRFYITTCAELPQDADIKFKEMENTKKVLERLYLFAKEIAERRGETGEEFSYIDKWLLSRLYKAVKQYDEYMENFELRKAGILLYQLLDDLKWYRRRGGNNIRVLEEFLEVIIKLMMPFTPHLCEEMWEILGKEGFVSLAKFPEVKEEFINDEIEKGEEYLKAVMEDIKEIINVAKVQPKRIYLYTADDWKYEILKIIKENEGKTIKELMPIIMKNPEFRKYGKEIPKLVNQLIKLNAEIINEVEVLENAKEFLKKEVGVEDIIINGEDKANKKRVAIPFKPAIYLE
[5]
  charging of Escherichia coli total tRNA versus Halobacterium tRNA: able to effectively charge Escherichia coli tRNA
